These results are taken from patent publication US4285949A, “Vincamine derivatives, their preparation and therapeutical use” (Omnichem Societe Anonyme, priority 1978, dated 1981).

A short description of series [1]: Acute toxicity, LD50 by intravenous route in mice (Lichtfield and Wilcoxon). The following applies: mouse, in vivo. The method, then:
The compounds of the invention as well as vincamine were administered by intravenous route to Charles River stock mice. The 50% lethal doses (LD50) where determined graphically according to the method of Lichtfield and Wilcoxon (J. Pharmacol. Exp. Therap. […], 96, 99).

The next series relates to mice. The series is described as follows: Hypobaric anoxia test on mice. It is filed as in vivo, mice (Charles River stock). The following applies: intragastric, 15 minutes before; for Survival time: 190 mm Hg (5.25% oxygen), control 39 (±2); for Survival time Variation %: 190 mm Hg, increase vs control animals. The method, then: Charles River stock mice of the same sex, weighing about 20±2 g are shared into three lots of 10 animals each. The lots 1 and 2 comprise treated animals, i.e. those having received either a substance to be tested or vincamine, together with solvent, at 1 ml/100 g of body weight. The third lot comprises control animals i.e. those having only received solvent at 1 ml/100 g of body weight.
The compounds examined are administered by intragastric route 15 minutes before the experiment.
The animals are placed in an atmosphere impoverished in oxygen by creating a partial vacuum (190 mm Hg, corresponding to 5.25% oxygen), in about 30 seconds.
The survival time of the mice is measured with a chronometer. Said time is increased by the agents capable of enhancing oxygenation of tissues and more particularly brain oxygenation. The percentages of survival time increase with respect to the values obtained for the control animals are calculated.
The doses were selected to obtain a 50-70% increase of the survival time of the animals under the experimental conditions.

`CC[C@]12C=CCN3CCc4c(n(c5ccc(Cl)cc45)[C@](O)(C(=O)OC)C1)[C@@H]32` [OC-231 E, 10-Chloro-16-epiΔ14-vincamine] yielded an LD50 in series [1] (iv) of 47 mg/kg. For the same compound, in the series on mice (30 mg/kg), the Survival time was 62 (±6) and the “Survival time Variation %” value was “+55%”.

Compound `CC[C@]12CCCN3CCc4c(n(c5ccccc45)[C@@](O)(C(=O)OC)C1)[C@@H]32` [Vincamine] came in with an LD50 in series [1] (mice, intravenous) of 47 mg/kg. Moreover, in the series with mice (200 mg/kg), the Survival time is listed as 58 (±4) and the “Survival time Variation %” value is given as “+49%”.

Compound `CC[C@]12C=CCN3CCc4c(n(c5ccc(Cl)cc45)[C@@](O)(C(=O)OC)C1)[C@@H]32` [OC-231 N, 10-Chloro-Δ14-vincamine] gave an LD50 in series [1] (iv) of 47 mg/kg. For the same compound, in the series with mice (30 mg/kg), the Survival time is recorded as 60 (±1) and the “Survival time Variation %” value is recorded as “+53%”.

In series [1] (iv), `CC[C@]12C=CCN3CCc4c(n(c5ccc(Cl)cc45)C(C(=O)OC)=C1)[C@@H]32` [OC-233, 10-Chloro-apo-Δ14-vincamine] displayed an LD50 of 52 mg/kg. Besides, in the series on mice (20 mg/kg), the Survival time was 57 (±4) and the “Survival time Variation %” value is listed as “+46%”.

What is called LD50 is the dose at which mortality reaches 50%. The low end stands for greater toxicity, the high end for lower toxicity.
